The results in this text go back to patent US5968526A, “T cell epitopes of the major allergens from Dermatophagoides (house dust mite)” (Immulogic Pharamaceutical Corporation, priority 1995, dated 1999).

Assay [1] concerns T cell lines primed in vitro to Der f II. Description: secondary proliferation of Der f II-primed T cell lines (Examples IX, X, XI). The assay is classed as cell-based, human. Particulars: for T cell response: patient 384, recombinant Der f II primed, data not shown. As for the experimental part:
Experiments similar to those of Example V were performed to determine the T cell-reactive areas of the Der f II protein. For example, PBMC from house dust mite-allergic patient 384 were stimulated in vitro with purified recombinant Der f II and the T cell line was then challenged in the presence of x-irradiated (25,000 Rads) autologous Epstein-Barr virus transformed B cells as antigen presenting cells with various overlapping […]. The results of this proliferation assay indicate that T cells from this particular patient respond well to peptides DF II-1, DF II-2, DF II-3.1, DF II-4.5, DF II-15, DF II-16, and DF I-19.1 (data not shown).
The above procedure was followed with 10 patients, except in individual cases, T cell lines were primed by stimulating the patient PBMC with 20 μg/ml or 3 μg/ml purified native Der f II, and were assayed in the presence of x-irradiated (3500 Rads) autologous PBMC as antigen-presentingcells.
A study similar to that described in Example VII was carried out to determine the T cell cross-reactivity of the Der p II and Der f II proteins. T cells primed with the Der f II protein were challenged with various Der f II peptides and a set of substantially matching Der p II peptides. […]

Assay [2] deals with T cell lines primed in vitro to Der p II. Description: secondary proliferation of Der p II-primed T cell lines (Examples VIII, X, XI). In kind it is cell-based, human. The procedure:
Experiments similar to those of Example V were performed to determine the T cell-reactive areas of the Der p II protein. For example, PBMC from house dust mite-allergic patient 348 were isolated as described in Example V and were stimulated in vitro with 20 μg/ml purified native Der p II.
The above procedure was followed with a number of patients except in individual cases, T cell lines were primed with recombinant Der p II at 20 μg/ml or at 3 μg/ml and x-irradiated (3500 Rads) autologous PBMC were used as antigen-presenting cells. The data was analyzed as described in Example V, except the ranked sum of peptide responses was analyzed assigning a value of 3, 2 or 1 to the three highest S.I. responses.
A study similar to that described in Example VII was carried out to determine the T cell cross-reactivity of the Der p II and Der f II proteins. T cells primed with the Der f II protein were challenged with various Der f II peptides and a set of substantially matching Der p II peptides.
Another experiment following the procedure described in Example VIII analyzed the response of 29 patients primed in vitro to the Der p II protein and challenged with selected peptides derived from the Der p II sequence.

The subject of assay [3] is PBMC from mite-allergic patient. Description: primary T cell (PBMC) proliferation, mite-allergic patient, tritiated thymidine. In kind it is cell-based, human. As to conditions: medium 1071 ± 30. As for the experimental part: Peripheral blood mononuclear cells (PBMC) were purified by Ficoll-Hypaque centrifugation of a peripheral blood specimen from mite-allergic patient and were assayed for proliferation in response to various antigens, i.e., affinity-purified Der p I, affinity purified Der p II, various Der p I and Der p II peptides. For assay, 5×10^4 PBMC were cultured in triplicate microwells for 7 days at 37° C. in the presence of various concentrations of antigen in 200 μl RPMI-1640 containing 5% human AB serum. Each well then received 1 μCi tritiated thymidine for 16 hours. The counts incorporated were collected onto glass fiber filters and processed for liquid scintillation counting. […] The CPM +/- standard deviation are shown. The stimulation index of each response (S.I.) is the ratio of the ^3 H-thymidine CPM incorporated by the cells in response to antigen divided by the ^3 H-thymidine CPM incorporated by cells in medium only. […] Thus, these peptides contain Der p I or Der p II T cell epitopes recognized by T cells from this particular allergic patient.

Assay [4] deals with T cell lines primed in vitro to Der p I. Description: secondary proliferation of Der p I-primed T cell lines (Examples V, VII, XI). The assay is classed as cell-based, human. As to conditions: for T cell reactivity: overlapping Der p I peptides, 33 positive experiments. In outline:
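PBMC were primed with native or recombinant Der p I (10 or 20 μg/ml) for 7 days, then expanded with IL-2 and IL-4. Resting T cells (2×10^4) were cultured 3 days with irradiated autologous EBV-B cells or PBMC and titrated protein or peptides, then pulsed 16 h with 1 μCi ³H-thymidine. S.I. was peak-response CPM over medium-only CPM, with S.I. ≥2.0 scored positive.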

Assay [5] concerns T cell lines primed in vitro with Der p I. Description: T cell proliferation with fine map and modified Group I peptides (Example XIV). The assay is classed as cell-based, human. Particulars: for T cell response, Group I peptides: FIGS. 31a-b. As for the experimental part: Long term T cell lines were established by stimulation of 2×10^6 PBL/ml in bulk cultures of complete medium (RPMI-1640, 2 mM L-glutamine, 100 U/ml penicillin/streptomycin, 5×10^-5 M 2-mercaptoethanol, and 10 mM HEPES supplemented with 5% heat inactivated human AB serum) with 30 μg/ml of purified native Der p I or Der p II for 5-6 days at 37° C. in a humidified 5% CO2 incubator to select for house dust mite protein allergen reactive T cells. This amount of priming antigen was determined to be optimal for the activation of T cells from house dust mite allergic patients. Viable cells were purified by LSM centrifugation and cultured in complete medium supplemented with 5 units recombinant human IL-2/ml and 5 units recombinant human IL-4/ml for up to three weeks until the cells no longer responded to lymphokines and were considered "rested". The ability of the T cells to proliferate to selected peptides, purified Der p I or Der p II, or positive (PHA) controls or negative controls (medium only) was then assessed. For assay, 2×10^4 rested cells were restimulated in the presence of 2×10^4 autologous Epstein-Barr virus (EBV)-transformed B cells (prepared as described below) (gamma-irradiated with 25,000 RADS) or with 5×10^4 autologous PBMs (gamma-irradiated with 3500 RADS), with 2-50 μg/ml of purified native Der p I or Der p II in a volume of 200 μl complete medium in duplicate or triplicate wells in 96-well round bottom plates for 3 days. Each well then received 1 μCi tritiated thymidine for 16-20 hours. The counts incorporated were collected onto glass fiber filter mats and processed for liquid scintillation counting. […] The titrations were used to optimize the dose of peptides in T cell assays.
The maximum response in a titration of each peptide is expressed as the stimulation index (S.I.). The S.I. is the counts per minute (CPM) incorporated by cells in response to peptide, divided by the CPM incorporated by cells in medium only. […] The positive results were used in calculating mean stimulation indices for each peptide for the individual patient tested.
The above procedure was followed with 18 patients in the studies using peptides derived from Der p I and Der f I (FIGS. 31a-b), and 21 patients in the studies with Der p II peptides (FIGS. 32a-b). Individual patient results were used in calculating the mean S.I. for each peptide if the patient responded to the Der p I or Der p II protein at an S.I. of 2.0 or greater and the patient responded to at least one peptide derived from a house dust mite allergen at an S.I. f 2.0 or greater. A summary of positive experiments from the patients tested is shown in FIGS. 32a and 32b and FIGS. 33a and 33b. The bars represent the positivity index. […] In parenthesis above each bar are the mean stimulation indices for each peptide or protein for the group of patients tested.
Autologous EBV-transformed cell lines were γ-irradiated with 25,000 Rad and used as antigen presenting cells in secondary proliferation assays and secondary bulk stimulations. These EBV-transformed cell lines were made by incubating 5×10^6 PBL with 1 ml of B-59/8 Marmoset cell line (ATCC CRL1612, American Type Culture Collection, Rockville, Md.) conditioned medium in the presence of 1 μg/ml phorbol 12-myristate 13-acetate (PMA) at 37° C. for 60 minutes in 12×75 mm polypropylene round-bottom Falcon snap cap tubes (Becton Dickinson Labware, Lincoln Park, N.J.). These cells were then diluted to 1.25×10^6 cells/ml in RPMI-1640 as described above except supplemented with 10% heat-inactivated fetal bovine serum and cultured in 200 μl aliquots in flat bottom culture plates until visible colonies were detected. They were then transferred to larger wells until the cell lines were established.

Assay [6] deals with human IgE. Description: direct binding ELISA of IgE to mite allergen proteins and peptides. Particulars: plasma of 19 mite-allergic patients and pool of 18; Example XV. As for the experimental part:
The coating antigens were removed and the wells are blocked with 0.5% gelatin in PBS, 300 μl/well for 2 hours at room temperature. Pooled human plasma (a mix of plasma samples from 20 patients that were skin test positive for commerical mite extract) was serially diluted with PBS-Tween 20 (PBS with 0.05% nonionic detergent Tween-20 Sigma, St. Louis, Mo.) and 100 μl/well a.backslash.was added and incubated overnight at 4° C. (plasma dilutions were tested in duplicate). The second antibody (biotinylated goat anti-Human IgE, 1:1000, Kirkegaard & Perry Laboratories Inc, Gaithersburg, Md.), was added at 100 μl/well for one hour at room temperature. This solution was removed and streptavidin-HRPO, 1:10000, (Southern Biotechnology Associates, Inc., Birmingham, Ala.) was then added at 100 μl/well for one hour at room temperature (all wells are washed three times with PBS-Tween between each incubation step). TMB Membrane Peroxidase Substrate system (Kirkegaard & Perry Laboratories) was freshly miced, and added at […]. The color was allowed to develop for 2-5 minutes. The reaction was stopped by the addition of […] of 1M phosphoric acid. Plates were read on a Microplate IL310 Autoreader (Biotech Instruments, Winooski, Vt.) with a 450 nm filter. The absorbance levels of duplicate wells were averaged. The order of coating antigens listed vertically in these figure legends corresponds in orDer from left to right to the coating antigens listed for each histogram.
The antigen preparation that was used as a positive control was a mixture of the four major biochemically purified mite allergens (term PMA for Purified Mite Allergen); Der f I, Der f II, Der p I and Der p II. The stock was generated at a concentration of 100 μgs of each protein per millimeter or 400 μgs total protein/ml. This preparation was used on each coated ELISA plate.
(In general: ELISA stands for enzyme-linked immunosorbent assay.)

In assay [7] the test system is T cell lines primed in vitro to Der f I. Description: secondary proliferation of Der f I-primed T cell lines (Examples VI, VII, XI). The assay is classed as cell-based, human. As to conditions: Der f I primed; 8 positive experiments; FIG. 8. As for the experimental part: Experiments similar to those of Example V were performed to determine. the T cell-reactive areas of the Der f I protein. For example, PBMC from house dust mite-allergic patient 783 were isolated as described in Example V and were stimulated in vitro-- with recombinant purified Der f I at 20 μg/ml. The results of the proliferation assay with Der f I peptides using x-irradiated (3500 Rads) autologous PBMC as antigen presenting cells indicate that T cells from this patient respond to the peptides DF I-8.1, DF I-9, DF I-6, DF I-10, DF I-2.1, DF I-3, DF I-11, DF I-5, DF I-1, and DF I-17 (data not shown).
The above procedure was followed in a number of patients except in individual cases, T cell lines were primed with affinity purified Der f I at 20 μg/ml or at 10 μg/ml and x-irradiated (25,000 Rads) autologous Epstein-Barr virus transformed B cells were used as antigen presenting cells. […]
Similarly, the procedure described in Example VI was followed with T cell lines from 9 patients primed in vitro to the Der f I protein then analyzed for response to selected peptides derived from the protein. The data was analyzed as described in Example VI. […]

For the substance “DF II-3.1: Der f II peptide (HRGKPFTLEALFDANQNTK)”, in assay [1], the T cell response result is “respond well”.

In the case of “DP II-7: Der p II peptide (CPLVKGQQYDIKYTWNVPKIAPKSENV)”, the T cell reactivity entry in assay [2] (overlapping Der p II peptides, 26 positive experiments, FIG. 9) is on record as “significant T cell reactivity”. The T cell response entry in assay [2] (patient 348, native Der p II primed, data not shown) is on record as “responds well”. The “T cell response to Der p II peptides” value in assay [1] (Der f II primed, 10 positive experiments, FIG. 11) was “respond significantly”.

As to “DP I-2: Der p I peptide (EIDLRQMRTVTPIRMQGGCGSCWAFSG)”, the results for the “CPM ± S.D.” value in assay [3] (10 μg/ml), in assay [3] (30 μg/ml) and in assay [3] (100 μg/ml) were 1395 ± 47 CPM, 1283 ± 34 CPM and 1486 ± 38 CPM, respectively. Further, the T cell reactivity entry in assay [4] was “significant regions of T cell reactivity”. In addition, in assay [5], the “T cell response, Group I peptides” value was “positive response”.

As to “DF II-16: Der f II peptide (LEIDVPGIDTNACHFMKCPLVKGQQY)”, in assay [1], the T cell response result is given as “respond well”.

Turning to “DP I-11.1: Der p I peptide, native sequence (HRNQSLDLAEQELVDCASQHGC)”, the “difference in mean S.I. or percentage of positive responses, original vs additional (native sequence) peptides” value in assay [4] (DP I-11/12 vs DP I-11.1/12.1) is reported as “no significant difference”. Besides, in assay [5], the “T cell response, Group I peptides” value is “positive response”.

Take “DP I-23.35: modified Der p I peptide (DEKEGVVQESYYRYVAREQSCRRPNADKE)”: in assay [5] (18 T cell lines, affinity purified Der p I primed, FIG. 31a), the “positive T cell responses, modified peptides” value is reported as “all eighteen T cell lines responded positively”. In assay [5], the “T cell response, Group I peptides” value is on record as “positive T cell studies”. Further, the “IgE binding (ELISA), modified peptides” value in assay [6] was “No plasma samples contained IgE”.

“DP II-25.2: Der p II peptide (TVKVLGDDGVLASAIATHAKIRD)”: in assay [1] (FIG. 18b, preferred Der p II peptides), the “ranked sum of peptide responses” value was “highest ranked sum”.

On to “DF II-13.1: Der f II peptide (HGSDPCIIHRGKPFTLEALFDANQNTKTA)”, for which, in assay [1] (overlapping Der f II peptides, 10 positive experiments, FIG. 10), the T cell reactivity result was “significant areas of T cell reactivity”.

As for “DP I-4: Der p I peptide (VAATESAYLAHRNQSLDLAEQ)”, in assay [4], the T cell reactivity entry was “significant regions of T cell reactivity”. Also, the “T cell response to Der p I peptides” value in assay [7] is “respond significantly”. Besides, the “T cell response, Group I peptides” value in assay [5] is given as “positive response”.
